Earlier results, collected in patent US20060073200A1, “Lercanidipine capsules” (Recordati Ireland Limited, priority 2004, published 2006).
Read-outs that look alike come from different tables or passages of the source.

Legend:
[1] = test system: Caco-2 cell apparatus
[2] = target: cytochrome P450 IIIA4 isoenzyme (Homo sapiens, UniProt P08684); conditions: extensive presystemic first pass elimination
[3] = not given; remark: listed apart in the source

Chain of cytochrome P450 IIIA4 isoenzyme (P08684 whole entry): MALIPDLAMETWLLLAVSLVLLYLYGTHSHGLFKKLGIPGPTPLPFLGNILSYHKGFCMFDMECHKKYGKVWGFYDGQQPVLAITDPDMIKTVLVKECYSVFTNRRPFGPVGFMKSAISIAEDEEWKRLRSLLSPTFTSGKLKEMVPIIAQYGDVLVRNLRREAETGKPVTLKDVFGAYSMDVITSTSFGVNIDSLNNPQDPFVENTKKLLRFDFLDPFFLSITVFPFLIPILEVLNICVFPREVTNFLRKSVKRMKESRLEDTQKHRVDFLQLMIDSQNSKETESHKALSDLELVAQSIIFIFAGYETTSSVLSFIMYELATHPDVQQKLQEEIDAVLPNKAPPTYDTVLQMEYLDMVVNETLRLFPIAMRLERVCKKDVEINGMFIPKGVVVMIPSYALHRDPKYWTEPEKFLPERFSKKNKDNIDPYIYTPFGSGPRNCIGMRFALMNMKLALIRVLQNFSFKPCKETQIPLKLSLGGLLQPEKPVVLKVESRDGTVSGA

In the case of COC(=O)C1=C(C)NC(C)=C(C(=O)OC(C)(C)CN(C)CCC(c2ccccc2)c2ccccc2)C1c1cccc([N+](=O)[O-])c1 (centres unmarked) [Lercanidipine, methyl 1,1,N-trimethyl-N-(3,3-diphenylpropyl)-2-aminoethyl 1,4-dihydro-2,6-dimethyl-4-(3-nitrophenyl)pyridine-3,5-dicarboxylate], the solubility (acidic media, at pH 5) is given as “less than 20 μg/ml”, the solubility (pH greater than 5) is given as “less than 5 μg/ml” and the aqueous solubility (water, lercanidipine and its salts) is given as “about 5 μg/ml”. For the same molecule, the Paap [1] was 0.05 ×10⁻⁶ cm/s, the “substrate for cytochrome P450 IIIA4 isoenzyme” value [2] was “substrate” and the “increase in amount of lercanidipine absorbed with simultaneous intake of food” value ([3]; food (especially high fat content) compared to administration without food) was “three to four fold”. For the same molecule, the “plasma level of lercanidipine” value ([3]; immediate release dosage forms, by 24 h) was “below 1 ng/ml” and the “peak plasma level (Tmax)” value ([3]; oral administration of an immediate release form) was 1 to 3 h.
